Patent publication US6506392B2, “Theraputic topical solution for skin and associated methods of use” (priority 2000, dated 2003)

Tested on: skin exhibiting psoriasis
Experiment: topical application to skin exhibiting psoriasis (Example 1)
Type: in vivo, human
Conditions: one subject, treatments used before the solution
Source text: A further understanding of the present invention will be afforded by a consideration of the following non-limiting examples. In these examples, the “full strength” 100% solution was utilized. These examples are illustrative of the principals of the present invention and are not intended to limit the scope of the invention to the exemplary uses and formulations.
Three subjects, two male and one […], suffering from psoriasis, applied the solution to areas on their bodies and rubbed in the solution with their fingertips several times per day or as needed. Areas of application included knees and elbows.
It is important to note that some of the subjects had suffered from psoriasis for an extended period of time and had tried a variety of treatments. One subject had previously utilized various tars, cortisones, temovate and methotrexate treatments.

| Structure (SMILES) | outcome of previous psoriasis treatments |
| --- | --- |
| CCC(=O)O[C@]1(C(=O)CCl)[C@@H](C)C[C@H]2[C@@H]3CCC4=CC(=O)C=C[C@]4(C)[C@@]3(F)[C@@H](O)C[C@@]21C [temovate] | without success |
| CN(Cc1cnc2nc(N)nc(N)c2n1)c1ccc(C(=O)N[C@@H](CCC(=O)O)C(=O)O)cc1 [methotrexate] | without success |
